The target of assay [1] is T1, human glucocorticoid receptor-α [GRX] isoform (Homo sapiens, UniProt P04150).
T1 construct: host or cells: insect SF21 cells (baculovirus)
T1 sequence (P04150 1-777): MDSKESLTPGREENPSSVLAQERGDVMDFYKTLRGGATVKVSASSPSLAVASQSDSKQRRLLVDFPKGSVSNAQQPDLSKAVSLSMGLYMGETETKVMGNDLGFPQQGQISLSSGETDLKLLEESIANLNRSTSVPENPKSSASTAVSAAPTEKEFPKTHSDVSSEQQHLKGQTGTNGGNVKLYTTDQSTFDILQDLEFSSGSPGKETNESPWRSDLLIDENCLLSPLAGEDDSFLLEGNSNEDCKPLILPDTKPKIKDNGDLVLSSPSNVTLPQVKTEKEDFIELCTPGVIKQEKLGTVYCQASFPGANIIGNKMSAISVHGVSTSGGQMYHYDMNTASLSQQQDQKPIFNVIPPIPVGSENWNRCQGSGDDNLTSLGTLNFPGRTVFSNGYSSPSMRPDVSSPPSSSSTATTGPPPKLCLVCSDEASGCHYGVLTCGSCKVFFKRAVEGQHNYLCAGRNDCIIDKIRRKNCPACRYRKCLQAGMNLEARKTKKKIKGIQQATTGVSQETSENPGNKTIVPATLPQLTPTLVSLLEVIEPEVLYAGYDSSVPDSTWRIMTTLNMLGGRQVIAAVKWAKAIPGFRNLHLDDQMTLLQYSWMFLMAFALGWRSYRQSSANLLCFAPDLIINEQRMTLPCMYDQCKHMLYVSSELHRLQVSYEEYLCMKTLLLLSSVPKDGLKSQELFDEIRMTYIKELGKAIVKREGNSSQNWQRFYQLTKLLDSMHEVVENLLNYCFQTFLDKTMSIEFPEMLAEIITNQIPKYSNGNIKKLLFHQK
Description: Radioligand binding with human glucocorticoid receptor cytosol ([3H]-dexamethasone competition).
Description: Briefly, cytosol preparations of human glucocorticoid receptor-α [GRX] isoform and human progesterone receptor-A [PRA] isoform were obtained from Ligand Pharmaceuticals (San Diego, Calif.). Both receptor cDNAs were cloned into baculovirus expression vectors and expressed in insect SF21 cells. [^3H]-dexamethasone (Dex, specific activity 82-86 Ci/mmole) and [^3H]-progesterone (Prog, specific activity 97-102 Ci/mmol) were purchased from Amersham Life Sciences (Arlington Heights, Ill.). Glass fiber type C multiscreen MAFC NOB plates were from Millipore (Burlington, Mass.). Hydroxyapatide Bio-Gel HTP gel was from Bio-Rad Laboratories (Hercules, Calif.). Tris(hydroxymethyl)aminomethane (Tris), ethylenediaminetetraacetic acid (EDTA), glycerol, dithiothreitol (DTT) and sodium moylybdate were obtained from Sigma Chemicals (St. Louis, Mo.). Microscint-20 scintillation fluid was from Packard Instrument (Meriden, Conn.).
Stock solutions (32 mM) of compounds were prepared in dimethylsulfoxide (DMSO), and 50× solutions of test compounds were prepared from the 32 mM solution with a 50:50 mixture of DMSO/ethanol. The 50× solution was then diluted with binding buffer that contained 10 mM Tri-HCl, 1.5 mM EDTA, 10% glycerol, 1 mM DTT, 20 mM sodium molybdate, pH 7.5 @4° C. 1% DMSO/ethanol was present in the binding assay.
For GR binding assays, [^3H]-Dex (˜35,000 dpm (˜0.9 nM)), GRX cytosol (˜35 μg protein), test compounds and binding buffer were mixed in a total volume of 200 μL and incubated at 4° C. overnight in a plate shaker. Specific binding was defined as the difference between binding of [^3H]Dex in the absence and in the presence of 1 μM unlabelled Dex.
After an overnight incubation, 50 μL of hydroxyapatite (25% weight/volume) slurry were added to each well and plates were incubated for 10 min at 0° C. in a plate shaker. Plates were suctioned with a Millipore vacuum manifold and each well was rinsed with 300 μL of ice-cold binding buffer. A 250 μL aliquot of Packard Microscint-20 was added to each well and the wells were shaken at room temperature for 20 minutes. The amount of radioactivity was determined with a Packard TopCount plate reader.
The Ki of test compounds was determined using the Cheng-Prusoff equation Ki=IC50/(1+[L*]/[KL]) where L* is the concentration of radioligand and KL is the dissociation constant of the radioligand determined from saturation analysis.

The target of assay [2] is T2, human progesterone receptor-A [PRA] isoform (Homo sapiens, UniProt P06401).
T2 construct: host or cells: insect SF21 cells (baculovirus)
T2 sequence (P06401 1-769 isoform P06401-2): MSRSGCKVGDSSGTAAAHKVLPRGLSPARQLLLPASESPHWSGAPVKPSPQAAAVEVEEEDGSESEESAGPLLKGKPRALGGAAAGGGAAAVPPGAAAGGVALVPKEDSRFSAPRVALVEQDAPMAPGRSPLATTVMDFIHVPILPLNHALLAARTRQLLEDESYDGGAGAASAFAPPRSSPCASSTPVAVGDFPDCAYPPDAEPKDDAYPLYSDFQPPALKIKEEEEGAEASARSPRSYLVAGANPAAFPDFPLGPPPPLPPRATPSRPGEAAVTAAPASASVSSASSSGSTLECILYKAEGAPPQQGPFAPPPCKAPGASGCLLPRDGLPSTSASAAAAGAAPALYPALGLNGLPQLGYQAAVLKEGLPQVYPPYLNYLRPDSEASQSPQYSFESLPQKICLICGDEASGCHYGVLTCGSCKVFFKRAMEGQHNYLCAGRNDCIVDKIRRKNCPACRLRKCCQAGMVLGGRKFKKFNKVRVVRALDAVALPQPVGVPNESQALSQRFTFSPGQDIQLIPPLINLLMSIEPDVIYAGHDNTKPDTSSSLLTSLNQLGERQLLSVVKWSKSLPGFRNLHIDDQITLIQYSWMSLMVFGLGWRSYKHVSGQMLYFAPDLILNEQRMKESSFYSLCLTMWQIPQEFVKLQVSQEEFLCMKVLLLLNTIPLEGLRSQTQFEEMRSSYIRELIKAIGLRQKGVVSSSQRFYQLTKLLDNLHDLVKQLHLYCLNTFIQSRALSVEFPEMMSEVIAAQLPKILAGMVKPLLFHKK
Description: Radioligand binding with human progesterone receptor cytosol ([3H]-progesterone competition).

Setting [3] is: PRA cytosol expressed in insect SF21 cells, [3H]Prog ~0.8 nM, 4° C. overnight, Ki by Cheng-Prusoff, KL ~4.5 nM, read-out: Ki (nM) PR.
Setting [4] is: GRX cytosol expressed in insect SF21 cells, [3H]-Dex ~0.9 nM, 4° C. overnight, Ki by Cheng-Prusoff, KL ~[…], read-out: Ki (nM) GR.

The text below walks through data of patent publication US6506766B1 (Abbott Laboratories, priority 1998, dated 2003).

Read-outs that look alike come from different tables or passages of the source.

Broadly, the Ki is the dissociation constant of the complex between target and ligand, obtained from inhibition or displacement. In the case of “2,5-Dihydro-9-hydroxy-10-methoxy-2,2,4-trimethyl-5-((2-fluorophenyl)methyl)-1H-[1]benzopyrano[3,4-f]quinoline [Example 385]”, the Ki in assay [1] (read-out: Ki (nM) GR) is 0.9 nM; in assay [2] (setting [3]) it was 170 nM.

For the compound “2,5-Dihydro-9-hydroxy-10-methoxy-5-propyl-2,2,4-trimethyl-1H-[1]benzopyrano[3,4-f]quinoline [Example 245]”, the Ki in assay [1] (read-out: Ki (nM) GR) is 0.95 nM; in assay [2] (read-out: Ki (nM) PR) it was 119 nM.

Turning to “2,5-Dihydro-10-methoxy-5-(3,3-dimethyl-6-cyclohexenyl)-2,2,4-trimethyl-1H-[1]benzopyrano[3,4-f]quinoline [Example 146]”, the Ki came out at 8.3 nM in assay [1] (read-out: Ki (nM) GR) and 8300 nM in assay [2] (read-out: Ki (nM) PR).

Turning to “5-Butyl-2,5-dihydro-9-hydroxy-10-methoxy-2,2,4-trimethyl-1H-[1]benzopyrano[3,4-f]quinoline [Example 251]”, the Ki in assay [1] (read-out: Ki (nM) GR) is 0.87 nM; in assay [2] (read-out: Ki (nM) PR) it was 163 nM.

On to “9,10-Dimethoxy-5-[3-cyclohexenyl]-methoxy-2,2,4-trimethyl-2,5-dihydro-1H-[1]benzopyrano[3,4-f]quinoline [Example 291]”, for which the Ki in assay [1] (read-out: Ki (nM) GR) was determined as 8.1 nM; in assay [2] (read-out: Ki (nM) PR), 592 nM.

Consider `COc1cccc2c1-c1ccc3c(c1C(C1C=CCC(C)(C)C1)O2)C(C)=CC(C)(C)N3` (mixture of isomers) [Example 133], for which the Ki is 3.6 nM in assay [1] (setting [4]) and 4870 nM in assay [2] (setting [3]).

With `COc1cccc2c1-c1ccc3c(c1C(C1C=CCCC1)O2)C(C)=CC(C)(C)N3` (mixture of isomers) [Example 137], the values for the Ki in assay [1] (Ki (nM) GR) and in assay [2] (setting [3]) were 5.5 nM and 2410 nM, respectively.

Turning to `CCCC1Oc2cccc(OC)c2-c2ccc3c(c21)C(C)=CC(C)(C)N3` (stereo not shown) [Example 54, 2,5-Dihydro-10-methoxy-2,2,4-trimethyl-5-propyl-1H-[1]benzopyrano[3,4-f]quinoline], the Ki in assay [1] (setting [4]) came to 6.6 nM.

Regarding `C#CCC1Oc2cccc(OC)c2-c2ccc3c(c21)C(C)=CC(C)(C)N3` (stereo not shown) [Example 66, 2,5-Dihydro-10-methoxy-2,2,4-trimethyl-5-(2-propynyl)-1H-[1]benzopyrano[3,4-f]quinoline], the Ki in assay [1] (setting [4]) is 2.7 nM.

Take `COc1cccc2c1-c1ccc3c(c1C(CN)O2)C(C)=CC(C)(C)N3` (stereo not shown) [Example 206A, 2,5-Dihydro-10-methoxy-5-(aminomethyl)-2,2,4-trimethyl-1H-[1]benzopyrano[3,4-f]quinoline]: the Ki in assay [1] (setting [4]) was determined as 4190 nM.

Turning to `COc1c(O)ccc2c1-c1ccc3c(c1[C@@H](C1CCCC1)O2)C(C)=CC(C)(C)N3` [Example 265, (+)(R)5-Cyclopentyl-2,5-dihydro-9-hydroxy-10-methoxy-2,2,4-trimethyl-1H-[1]benzopyrano[3,4-f]quinoline], the Ki in assay [1] (setting [4]) was 767 nM.

`C=CCC1Oc2cccc(Cl)c2-c2ccc3c(c21)C(C)=CC(C)(C)N3` (stereo not shown) [Example 309, 10-Chloro-5-(3-propenyl)-2,2,4-trimethyl-2,5-dihydro-1H-[1]benzopyrano[3,4-f]quinoline]: the Ki in assay [2] (setting [3]) was found to be 60.7 nM.

For the compound `COC(=O)CN(C)C(=O)Oc1cccc(C2Oc3cccc(OC)c3-c3ccc4c(c32)C(C)=CC(C)(C)N4)c1` (stereo not shown) [Example 311, 2,5-Dihydro-10-methoxy-5-(3-(N-methyl-N-(carbomethoxymethyl)aminocarbonyloxy)phenyl)-2,2,4-trimethyl-1H-[1]benzopyrano[3,4-f]quinoline], in assay [2] (Ki (nM) PR), the Ki was at least 10000 nM.

Regarding `C=CC1Oc2cccc(OC)c2-c2ccc3c(c21)C(C)=CC(C)(C)N3` (stereo not shown) [Example 320, 2,5-Dihydro-10-methoxy-5-ethenyl-2,2,4-trimethyl-1H-[1]benzopyrano[3,4-f]quinoline], in assay [2] (setting [3]), the Ki was determined as 3050 nM.

For the compound `COc1cccc2c1-c1ccc3c(c1C(C=C(C)C)O2)C(C)=CC(C)(C)N3` (stereo not shown) [Example 324, 2,5-Dihydro-10-methoxy-5-(2-methylpropenyl)-2,2,4-trimethyl-1H-[1]benzopyrano[3,4-f]quinoline], the Ki in assay [1] (setting [4]) amounted to 24 nM.

With `C=CCC1Oc2cccc(CO)c2-c2ccc3c(c21)C(C)=CC(C)(C)N3` (stereo not shown) [Example 329, 2,5-Dihydro-10-(2-hydroxymethyl)-5-(3-propenyl)-2,2,4-trimethyl-1H-[1]benzopyrano[3,4-f]quinoline], in assay [2] (setting [3]), the Ki came out at 192 nM.

For the compound `C=CCC1Oc2cccc(C=O)c2-c2ccc3c(c21)C(C)=CC(C)(C)N3` (stereo not shown) [Example 330, 2,5-Dihydro-10-formyl-5-(3-propenyl)-2,2,4-trimethyl-1H-[1]benzopyrano[3,4-f]quinoline], the Ki in assay [2] (setting [3]) was determined as 53 nM.

As for `COc1c(O)ccc2c1-c1ccc3c(c1/C(=C/c1ccccc1)O2)C(C)=CC(C)(C)N3` [Example 365, Z-5-(Benzylidenyl)-9-hydroxy-10-methoxy-2,2,4-trimethyl-1H-2,5-dihydro], the Ki in assay [2] (setting [3]) was found to be 98 nM.

In the case of `CC1=CC(C)(C)Nc2ccc3c(c21)/C(=C/c1cccc(F)c1)Oc1ccc(O)c(Cl)c1-3` [Example 367, Z-5-(3-Fluorobenzylidenyl)-10-chloro-9-hydroxy-2,2,4-trimethyl-2,5-dihydro-1H-[1]benzopyrano[3,4-f]quinoline], the Ki in assay [2] (setting [3]) amounted to 7.6 nM.

Regarding `COc1c(O)ccc2c1-c1ccc3c(c1C(Cc1cc(F)cc(F)c1)O2)C(C)=CC(C)(C)N3` (stereo not shown) [Example 382, 2,5-Dihydro-9-hydroxy-10-methoxy-2,2,4-trimethyl-5-(3-5-difluorophenylmethyl)-1H-[1]benzopyrano[3,4-f]quinoline], the Ki in assay [2] (setting [3]) worked out at 150 nM.

Regarding `COc1cccc2c1-c1ccc3c(c1[C@H]([C@@H]1C=CCC1)O2)C(C)=CC(C)(C)N3` [Example 390, (−)(5S,3′S)2,5-Dihydro-10-methoxy-2,2,4-trimethyl-5-(cyclopenten-3-yl)-1H-[1]benzopyrano[3,4-f]quinoline], the Ki in assay [2] (setting [3]) worked out at 520 nM.

In the case of `COc1cccc2c1-c1ccc3c(c1[C@H]([C@@H]1C=CCCC1)O2)C(C)=CC(C)(C)N3` [Example 391, (−)(5S,3′S)2,5-Dihydro-10-methoxy-2,2,4-trimethyl-5-(cyclohexen-3-yl)-1H-[1]benzopyrano[3,4-f]quinoline], in assay [1] (Ki (nM) GR, GRX cytosol expressed in insect SF21 cells, [3H]-Dex ~0.9 nM, 4° C. overnight, Ki by Cheng-Prusoff, KL ~[…]), the affinity, expressed as Ki, was 1.7 nM.

On to `COc1cccc2c1-c1ccc3c(c1[C@H]([C@H]1C=CCC1)O2)C(C)=CC(C)(C)N3` [Example 393, (−)(5S,3′R)2,5-Dihydro-10-methoxy-2,2,4-trimethyl-5-(cyclopenten-3-yl)-1H-[1]benzopyrano[3,4-f]quinoline], for which the Ki in assay [2] (setting [3]) came to 589 nM.

`C=CCC1Oc2c(Br)cc(O)c(Cl)c2-c2ccc3c(c21)C(C)=CC(C)(C)N3` (stereo not shown) [Example 397, 2,5-Dihydro-7-bromo-9-hydroxy-10-chloro-2,2,4-trimethyl-5-allyl-1H-[1]benzopyrano[3,4-f]quinoline]: in assay [2] (setting [3]), the Ki turned out to be 22.8 nM.

For the compound `CCCC1Oc2ccc(O)c(Cl)c2-c2ccc3c(c21)C(C)=CC(C)(C)N3` (stereo not shown) [Example 411, 2,5-Dihydro-9-hydroxy-10-chloro-2,2,4-trimethyl-5-propyl-1H-[1]benzopyrano[3,4-f]quinoline], the Ki in assay [1] (setting [4]) amounted to 0.68 nM.

As for `C=CCC1Oc2cccc(C=NO)c2-c2ccc3c(c21)C(C)=CC(C)(C)N3` (stereo not shown) [Example 446, 10-Carbaldehyde Oxime-5-(2-propenyl)-2,5-dihydro-2,2,4-trimethyl-1H-[1]benzopyrano[3,4-f]quinoline], the Ki in assay [1] (setting [4]) is 33 nM.

On to `C=CCC1Oc2cccc(OCc3ccccc3)c2-c2ccc3c(c21)C(C)=CC(C)(C)N3` (stereo not shown) [Example 447, 10-Benzyloxy-5-(2-propenyl)-2,5-dihydro-2,2,4-trimethyl-1H-[1]benzopyrano[3,4-f]quinoline], for which the Ki in assay [1] (setting [4]) turned out to be 7100 nM.
